Measured values reported in publication PMC8432116, “Drug–Drug Interaction between Tacrolimus and Vonoprazan in Kidney Transplant Recipients” (Journal of Clinical Medicine, 2021).
Several values for one entry are separate records, joined by “and”; a condition that tells them apart may be missing. Identical values can stand only once. Like-named read-outs stand apart in the source and are kept apart here.

What was measured:
[1] = Whole blood trough concentration and C/D ratio of tacrolimus before and after switching PPI from rabeprazole to vonoprazan; format: in vivo, human; settings: for Trough tacrolimus concentration, typical case / C/D ratio of tacrolimus, typical case: single case; for Percentage increase of the C/D ratio: vonoprazan coadministration; for Tacrolimus trough concentration, median (range): whole blood, 18 kidney transplant recipients
Procedure: (§1) Eighteen kidney transplant recipients were recruited for this study from February 2015 to July 2020 (Table 1). The recipients were treated with tacrolimus-based immunosuppression, tacrolimus QD (Graceptor®; Astellas Pharma, Tokyo, Japan) in combination with mycophenolate mofetil and corticosteroids. The initial dose of tacrolimus QD was 0.15–0.20 mg/kg/day for 3–7 days before transplantation. The patients’ PPIs were switched from oral rabeprazole to vonoprazan (TAK-438; Takecab®; Takeda Pharmaceutical Company Limited., Tokyo, Japan) for intensive gastric acid suppression on postoperative days (POD) 3–43. The median (range) dose of oral rabeprazole and vonoprazan were 0.16 (0.11–0.22) and 0.31 (0.11–0.44) mg/kg/day, respectively (Table 1). Blood concentrations of tacrolimus were […] when the rabeprazole was switched to vonoprazan. Liver function for the patients was normal. […] Major symptoms due to gastric ulcer, retching, and heartburn disappeared by switching from rabeprazole to vonoprazan.
Whole blood concentrations of tacrolimus were measured using the ARCHITECT chemiluminescent immunoassay system (Abbot, Abbot Park, IL, USA). Blood samples were collected in the morning just before the morning administration of tacrolimus to determine the trough levels. Tacrolimus dose was adjusted to achieve predefined target concentration ranges of 5–10 ng/mL (POD −3–14), 7–8 ng/mL (POD 14–28), and 5–8 ng/mL (after POD 28). The change in concentration/dose (C/D; in nanogram per milliliter/milligram per kilogram) ratio of tacrolimus before and after initiating oral vonoprazan was calculated to assess the DDIs.
Genomic DNA was extracted from peripheral whole blood samples using the QIAamp DNA blood kit system (Qiagen, Hilden, Germany) according to the manufacturer’s instruction. Subjects were genotyped for CYP2C19 rs4244285 (CYP2C19*2), CYP2C19 rs4986893 (CYP2C19*3), and CYP3A5 rs776746 (CYP3A5*3) polymorphisms. These variants were identified by real-time polymerase chain reaction (PCR) using a TaqMan® Drug Metabolism Genotyping Assays (Thermo Fisher Scientific, Waltham, MA, USA) with a QuantStudio 3 real-time PCR system (Thermo Fisher Scientific). Recipients were categorized into two groups based on the CYP2C19 genotypes (extensive metabolizer (EM; CYP2C19*1/*1)), intermediate metabolizer (IM; CYP2C19*1/*2 and *1/*3), and poor metabolizer (PM; *2/*2, *2/*3, and *3/*3)] and the CYP3A5 genotypes (CYP3A5*1 carrier (CYP3A5*1/*1 and CYP3A5*1/*3)) and the noncarrier (CYP3A5*3/*3)].
The Wilcoxon signed-rank test was used to compare the difference in the concentration and C/D ratio of tacrolimus before and after switching to vonoprazan. Differences in the concentration and C/D ratio of tacrolimus among the genotypes were compared by the Mann–Whitney U test. The statistical analyses were carried out using SPSS 26.0 (IBM, Tokyo, Japan). Results with a p value of <0.05 were considered statistically significant.

[2] = Clinical observation of adverse events and gastric symptoms after switching; format: in vivo, human
Procedure: as §1

[3] = cited from earlier work; for Increase in C/D ratio of tacrolimus after the conversion: outpatient phase of post-transplantation
[4] = parameters: method as in PMID 19177031; settings: cited from earlier work
[5] = Laboratory data of liver and kidney function before and after the switch; format: in vivo, human; settings: during the named PPI phase; 18 recipients on tacrolimus
Procedure: as §1

[6] = Estimated maximum concentration in the intestinal lumen according to DDI guidelines; parameters: species or system human
From the text: P-glycoprotein, a drug efflux transporter expressed in the intestinal lumen, can be considered in addition to CYP as the mechanism of the DDIs between vonoprazan and tacrolimus.

P-glycoprotein = test system: P-glycoprotein; parameters: method as in PMID 15467223; settings: read-out: IC50 for inhibition of P-glycoprotein transporter activity; cited from earlier work
[7] = CYP2C19 EM, n=5, rabeprazole to vonoprazan
[8] = CYP2C19 IM/PM, n=13, Rabeprazole
[9] = CYP2C19 IM/PM, n=13, Vonoprazan
[10] = CYP2C19 IM/PM, n=13, rabeprazole to vonoprazan
[11] = CYP3A5 *1 carrier, n=5, Rabeprazole
[12] = CYP3A5 *1 carrier, n=5, Vonoprazan
[13] = CYP3A5 *1 carrier, n=5, rabeprazole to vonoprazan
[14] = CYP3A5 *1 noncarrier, n=13, Rabeprazole
[15] = CYP3A5 *1 noncarrier, n=13, Vonoprazan
[16] = CYP3A5 *1 noncarrier, n=13, rabeprazole to vonoprazan
[17] = rabeprazole to vonoprazan, 18 recipients
[18] = vonoprazan coadministration vs rabeprazole

C=CC[C@@H]1/C=C(\C)C[C@H](C)C[C@H](OC)[C@H]2O[C@@](O)(C(=O)C(=O)N3CCCC[C@H]3C(=O)O[C@H](/C(C)=C/[C@@H]3CC[C@@H](O)[C@H](OC)C3)[C@H](C)[C@@H](O)CC1=O)[C@H](C)C[C@@H]2OC [Tacrolimus]
Tacrolims C/D Ratio, median ([1]; CYP2C19 EM, n=5, Rabeprazole): 25.6 (ng/mL)/(mg/kg/day) | Tacrolimus Concentration, median ([1]; CYP2C19 EM, n=5, Rabeprazole): 4.0 ng/mL | Tacrolims C/D Ratio, median ([1]; CYP2C19 EM, n=5, Vonoprazan): 40.7 (ng/mL)/(mg/kg/day) | Tacrolimus Concentration, median ([1]; CYP2C19 EM, n=5, Vonoprazan): 8.5 ng/mL | ΔC/D Ratio, median [1, 7]: 15.1 | ΔConcentration, median [1, 7]: 3.6 ng/mL | Tacrolims C/D Ratio, median [1, 8]: 39.5 (ng/mL)/(mg/kg/day) | Tacrolimus Concentration, median [1, 8]: 5.3 ng/mL | Tacrolims C/D Ratio, median [1, 9]: 50.4 (ng/mL)/(mg/kg/day) | Tacrolimus Concentration, median [1, 9]: 7.7 ng/mL | ΔC/D Ratio, median [1, 10]: 6.3 | ΔConcentration, median [1, 10]: 3 ng/mL | Tacrolims C/D Ratio, median [1, 11]: 36.9 (ng/mL)/(mg/kg/day) | Tacrolimus Concentration, median [1, 11]: 5.3 ng/mL | Tacrolims C/D Ratio, median [1, 12]: 45.1 (ng/mL)/(mg/kg/day) | Tacrolimus Concentration, median [1, 12]: 8.5 ng/mL | ΔC/D Ratio, median [1, 13]: 14.6 | ΔConcentration, median [1, 13]: 2.8 ng/mL | Tacrolims C/D Ratio, median [1, 14]: 44.9 (ng/mL)/(mg/kg/day) | Tacrolimus Concentration, median [1, 14]: 5.0 ng/mL | Tacrolims C/D Ratio, median [1, 15]: 50.4 (ng/mL)/(mg/kg/day) | Tacrolimus Concentration, median [1, 15]: 7.5 ng/mL | ΔC/D Ratio, median [1, 16]: 18.3 | ΔConcentration, median [1, 16]: 3.3 ng/mL | Percent change in tacrolimus C/D ratio after the switching, median (range) [1, 17]: 41.8% and 41.8 (2.7–129.8) % | Percent change in tacrolimus concentration after the switching, median (range) [1, 17]: 65.8% and 65.8 (0.0–192.5) % | Trough tacrolimus concentration, typical case ([1]; after switching to vonoprazan): 9.4 to 10.7 ng/mL | C/D ratio of tacrolimus, typical case ([1]; rabeprazole phase): 26.2–29.0 | Trough tacrolimus concentration, typical case ([1]; rabeprazole phase): 3.8 to 4.7 ng/mL | C/D ratio of tacrolimus, typical case ([1]; vonoprazan phase, 10 mg, before dose escalation): 33.6–37.1 | C/D ratio of tacrolimus, typical case ([1]; vonoprazan phase, after escalation to 20 mg): 41.3–48.8 | Elevation in C/D ratio of tacrolimus [1, 18]: 1.4 fold | Elevation in blood concentration of tacrolimus [1, 18]: 1.7 fold | Percentage increase of the C/D ratio ([1]; CYP3A5*1 carriers): 44.4% | Percentage increase of the C/D ratio ([1]; CYP3A5*1 noncarriers): 39.1% | Tacrolimus trough concentration, median (range) ([1]; with rabeprazole, before switching): 5.2 (3.6–7.4) ng/mL | Tacrolimus trough concentration, median (range) ([1]; with vonoprazan, after switching): 8.1 (6.1–11.7) ng/mL | Tacrolimus C/D ratio, median (range) ([1]; with rabeprazole, before switching, 18 recipients): 38.1 (16.5–138.1) (ng/mL)/(mg/kg) | Tacrolimus C/D ratio, median (range) ([1]; with vonoprazan, 7 days after initiating, 18 recipients): 48.9 (26.6–207.2) (ng/mL)/(mg/kg) | Adverse events ([2]; all patients, after switching to vonoprazan, tacrolimus kept in therapeutic range): No adverse event was observed | Increase in C/D ratio of tacrolimus after the conversion ([3]; ref 27): 10.6% | Increase in C/D ratio of tacrolimus after the conversion ([3]; ref 30): no increase | Increase of the C/D ratio of tacrolimus after switching rabeprazole to vonoprazan ([3]; outpatients 2–7 years post-transplantation): 1.1 fold | Increase of tacrolimus trough levels after switching to vonoprazan ([3]; outpatients, even in the CYP2C19 IM/PM in the CYP3A5*1 noncarriers): no significant increase | Therapeutic range of blood concentration [4]: 5 to 15 ng/mL

CNCc1cc(-c2ccccc2F)n(S(=O)(=O)c2cccnc2)c1.O=C(O)/C=C/C(=O)O [Vonoprazan, 1-[5-(2-Fluorophenyl)-1-(pyridin-3-ylsulfonyl)-1H-pyrrol-3-yl]-N-methylmethanamine monofumarate]
Alanine aminotransferase, median (range) [5]: 22 IU/L | Aspartate aminotransferase, median (range) [5]: 15 IU/L | Blood urine nitrogen, median (range) [5]: 17.4 (7.5–45.4) mg/dL | Serum creatinine, median (range) [5]: 1.21 (0.58–2.84) mg/dL | Major symptoms due to gastric ulcer, retching and heartburn ([2]; switching from rabeprazole to vonoprazan): disappeared | Estimated maximum concentration in the intestinal lumen ([6]; administered at 20 mg): 231 µM | IC50 (P-glycoprotein): 50 µM

COCCCOc1ccnc(C[S+]([O-])c2nc3ccccc3[nH]2)c1C (stereo not shown) [Rabeprazole]
Alanine aminotransferase, median (range) [5]: 28 IU/L | Aspartate aminotransferase, median (range) [5]: 16 IU/L | Blood urine nitrogen, median (range) [5]: 24.2 (9.8–78.7) mg/dL | Serum creatinine, median (range) [5]: 1.55 (0.62–4.31) mg/dL | Estimated maximum concentration in the intestinal lumen ([6]; administered at 10 mg): 111 µM | IC50 (P-glycoprotein): ≥ 100 µM
